Active and inactive are the calls of the source. The calls are words filed in the database; no cut-off is given here.
How the values were obtained:
Fibroblast = assay: Antinephropathic cystinosis activity in human cystinotic fibroblast assessed as decrease in cystine level at 50 uM after 24 hrs by Bradford reagent method; assay type: functional, cell-based
[1] = Cytotoxicity against human cystinotic fibroblast at 50 uM after 72 hrs by alamar blue assay; assay type: cell-based

SMILES	inhibition (Fibroblast)	Activity [1]
COCCOCCOCCOCCNC(=O)CCC(=O)NCCSSCCNC(=O)CCC(=O)NCCOCCOCCOCCOC	Active	Non-toxic
COCCOCCOCCNC(=O)CCC(=O)NCCSSCCNC(=O)CCC(=O)NCCOCCOCCOC	Active	Non-toxic
NCCS [CYSTEAMINE]	Active	Non-toxic
COCCOCCOCCNC(=O)CCCC(=O)NCCSSCCNC(=O)CCCC(=O)NCCOCCOCCOC	Active	Non-toxic
COCCOCCOCCOCCNC(=O)CCCC(=O)NCCSSCCNC(=O)CCCC(=O)NCCOCCOCCOCCOC	Active	–

Source: ChEMBL document CHEMBL1641379, “PEGylated derivatives of cystamine as enhanced treatments for nephropathic cystinosis” (Bioorg Med Chem Lett, 2011)
